# Source: patent US9777297B2 (EASEL BIOTECHNOLOGIES, LLC, priority 2011, dated 2017)
# Tested on: engineered E. coli
# Test: n-butyraldehyde toxicity incubation test in sealed tube, colony forming units versus time
# Type: cell-based
# Description: In all cases, including the case in which no addition is made, the number of colony forming units tends to a minimum value (e.g., cells no longer viable) after about 24 hours.
smiles,measurement,setting,value
CCCC=O [n-butyraldehyde],change in colony forming units per μL,"1.0 g/L n-butyraldehyde added, a little after 5 hours",net increase
same,change in colony forming units per μL,"1.2 g/L and above n-butyraldehyde added, at 4.5 hours",net decrease
